# Where “and” joins values, the source holds several entries; their conditions need not be identical. Equal values may be shown once.
# Tested on: 422866-222-R5-J1-PDC spheroid viability
# Assay: Anticancer human tumor 422866-222-R5-J1-PDC patient-derived pancreatic adenocarcinoma cell line growth inhibition [CLK]
# Conditions: spheroids with HUVEC and MSC; for viability, T/C: stronger effect = lower value
# Method in brief: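 Multi-cell-type spheroids combined patient-derived tumor cells with HUVEC endothelial cells and human mesenchymal stem cells. Paired agents were dosed in half-log steps down from about clinical Cmax, or from 10 microM where Cmax was unknown.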
# [1] = curve of first compound, second compound 0.0316 µM
# [2] = curve of first compound, second compound 0.1 µM
# [3] = curve of first compound, second compound 0.316 µM
# [4] = curve of first compound, second compound 1 µM
# [5] = curve of first compound, second compound 3.16 µM
# [6] = curve of first compound, second compound 10 µM
# [7] = second compound 0.0316 µM, first compound 0.0316 µM
# [8] = second compound 0.0316 µM, first compound 0.1 µM
# [9] = second compound 0.0316 µM, first compound 0.316 µM
# [10] = second compound 0.0316 µM, first compound 1 µM
# [11] = second compound 0.0316 µM, first compound 3.16 µM
# [12] = second compound 0.0316 µM, first compound 10 µM
# [13] = second compound 0.1 µM, first compound 0.0316 µM
# [14] = second compound 0.1 µM, first compound 0.1 µM
# [15] = second compound 0.1 µM, first compound 0.316 µM
# [16] = second compound 0.1 µM, first compound 1 µM
# [17] = second compound 0.1 µM, first compound 3.16 µM
# [18] = second compound 0.1 µM, first compound 10 µM
# [19] = second compound 0.316 µM, first compound 0.0316 µM
# [20] = second compound 0.316 µM, first compound 0.1 µM
# [21] = second compound 0.316 µM, first compound 0.316 µM
# [22] = second compound 0.316 µM, first compound 1 µM
# [23] = second compound 0.316 µM, first compound 3.16 µM
# [24] = second compound 0.316 µM, first compound 10 µM
# [25] = second compound 1 µM, first compound 0.0316 µM
# [26] = second compound 1 µM, first compound 0.1 µM
# [27] = second compound 1 µM, first compound 0.316 µM
# [28] = second compound 1 µM, first compound 1 µM
# [29] = second compound 1 µM, first compound 3.16 µM
# [30] = second compound 1 µM, first compound 10 µM
# [31] = second compound 3.16 µM, first compound 0.0316 µM
# [32] = second compound 3.16 µM, first compound 0.1 µM
# [33] = second compound 3.16 µM, first compound 0.316 µM
# [34] = second compound 3.16 µM, first compound 1 µM
# [35] = second compound 3.16 µM, first compound 3.16 µM
# [36] = second compound 3.16 µM, first compound 10 µM
# [37] = second compound 10 µM, first compound 0.0316 µM
# [38] = second compound 10 µM, first compound 0.1 µM
# [39] = second compound 10 µM, first compound 0.316 µM
# [40] = second compound 10 µM, first compound 1 µM
# [41] = second compound 10 µM, first compound 3.16 µM
# [42] = second compound 10 µM, first compound 10 µM
# 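Also: spheroids exposed to agents for seven days before readout.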
structure (smiles),measurement,setting,value
CC(C)CC(NC(=O)C(Cc1ccccc1)NC(=O)c1cnccn1)B(O)O (stereo not drawn) + CN1CCN(c2cc(C(=O)Nc3cc4cc(-c5cnn(C)c5)ccc4cn3)ccn2)CC1,IC50,[1],4.7 nM
same,IC50,[2],5.27 nM
same,IC50,[3],4.39 nM
same,IC50,[4],< 0.949 nM
same,IC50,[5],< 0.949 nM
same,IC50,[6],< 0.949 nM
same,"viability, T/C","second compound 0.0316 µM, first compound 0.000949 µM",111%
same,"viability, T/C","second compound 0.0316 µM, first compound 0.003 µM",76.2%
same,"viability, T/C","second compound 0.0316 µM, first compound 0.00949 µM",8.95%
same,"viability, T/C","second compound 0.0316 µM, first compound 0.03 µM",1.59%
same,"viability, T/C","second compound 0.0316 µM, first compound 0.0949 µM",0.94%
same,"viability, T/C","second compound 0.0316 µM, first compound 0.3 µM",0.87%
same,"viability, T/C","second compound 0.1 µM, first compound 0.000949 µM",115%
same,"viability, T/C","second compound 0.1 µM, first compound 0.003 µM",89.7%
same,"viability, T/C","second compound 0.1 µM, first compound 0.00949 µM",8.61%
same,"viability, T/C","second compound 0.1 µM, first compound 0.03 µM",1.61%
same,"viability, T/C","second compound 0.1 µM, first compound 0.0949 µM",0.69%
same,"viability, T/C","second compound 0.1 µM, first compound 0.3 µM",3%
same,"viability, T/C","second compound 0.316 µM, first compound 0.000949 µM",112%
same,"viability, T/C","second compound 0.316 µM, first compound 0.003 µM",72.7%
same,"viability, T/C","second compound 0.316 µM, first compound 0.00949 µM",4.02%
same,"viability, T/C","second compound 0.316 µM, first compound 0.03 µM",0.92%
same,"viability, T/C","second compound 0.316 µM, first compound 0.0949 µM",0.7%
same,"viability, T/C","second compound 0.316 µM, first compound 0.3 µM",0.68%
same,"viability, T/C","second compound 1 µM, first compound 0.000949 µM",25.4%
same,"viability, T/C","second compound 1 µM, first compound 0.003 µM",4.84%
same,"viability, T/C","second compound 1 µM, first compound 0.00949 µM",1.06%
same,"viability, T/C","second compound 1 µM, first compound 0.03 µM",0.61%
same,"viability, T/C","second compound 1 µM, first compound 0.0949 µM",0.91%
same,"viability, T/C","second compound 1 µM, first compound 0.3 µM",2.12%
same,"viability, T/C","second compound 3.16 µM, first compound 0.000949 µM",9.95%
same,"viability, T/C","second compound 3.16 µM, first compound 0.003 µM",4.26%
same,"viability, T/C","second compound 3.16 µM, first compound 0.00949 µM",1.32%
same,"viability, T/C","second compound 3.16 µM, first compound 0.03 µM",0.91%
same,"viability, T/C","second compound 3.16 µM, first compound 0.0949 µM",1.14%
same,"viability, T/C","second compound 3.16 µM, first compound 0.3 µM",1.2%
same,"viability, T/C","second compound 10 µM, first compound 0.000949 µM",1.77%
same,"viability, T/C","second compound 10 µM, first compound 0.003 µM",0.99%
same,"viability, T/C","second compound 10 µM, first compound 0.00949 µM",1.54%
same,"viability, T/C","second compound 10 µM, first compound 0.03 µM",0.44%
same,"viability, T/C","second compound 10 µM, first compound 0.0949 µM",1.53%
same,"viability, T/C","second compound 10 µM, first compound 0.3 µM",0.46%
COc1ccc([C@@H](O)c2cc(-c3ncnc4cc(N5CCOCC5)ccc34)c(F)cc2Cl)nn1,"viability, T/C",compound 0.0316 µM,88.1% and 94.1%
same,"viability, T/C",compound 0.1 µM,105% and 99%
same,"viability, T/C",compound 0.316 µM,80.7% and 76.8%
same,"viability, T/C",compound 1 µM,66.4% and 61.3%
same,"viability, T/C",compound 3.16 µM,47.2% and 38.6%
same,"viability, T/C",compound 10 µM,35.5% and 29.1%
same,IC50,curve of compound,2500 nM and 1710 nM
C=C(F)C(=O)N1CCN(c2nc(OCC3CCCN3C)nc3c2CCN(c2cccc4cccc(Cl)c24)C3)CC1CC#N (stereo not drawn) + CN1CCN(c2cc(C(=O)Nc3cc4cc(-c5cnn(C)c5)ccc4cn3)ccn2)CC1,IC50,[1],< 31.6 nM
same,IC50,[2],< 31.6 nM
same,IC50,[3],< 31.6 nM
same,IC50,[4],< 31.6 nM
same,IC50,[5],< 31.6 nM
same,IC50,[6],< 31.6 nM
same,"viability, T/C",[7],40.6%
same,"viability, T/C",[8],29.3%
same,"viability, T/C",[9],27%
same,"viability, T/C",[10],26.2%
same,"viability, T/C",[11],15.9%
same,"viability, T/C",[12],2.17%
same,"viability, T/C",[13],45.5%
same,"viability, T/C",[14],33.9%
same,"viability, T/C",[15],29.3%
same,"viability, T/C",[16],25.1%
same,"viability, T/C",[17],19.9%
same,"viability, T/C",[18],1.79%
same,"viability, T/C",[19],42.4%
same,"viability, T/C",[20],30.6%
same,"viability, T/C",[21],27.9%
same,"viability, T/C",[22],20.1%
same,"viability, T/C",[23],20%
same,"viability, T/C",[24],0.13%
same,"viability, T/C",[25],19.9%
same,"viability, T/C",[26],18.5%
same,"viability, T/C",[27],18.6%
same,"viability, T/C",[28],16.4%
same,"viability, T/C",[29],10.2%
same,"viability, T/C",[30],0.1%
same,"viability, T/C",[31],4.24%
same,"viability, T/C",[32],4.94%
same,"viability, T/C",[33],4.57%
same,"viability, T/C",[34],3.86%
same,"viability, T/C",[35],4.64%
same,"viability, T/C",[36],0.71%
same,"viability, T/C",[37],3.87%
same,"viability, T/C",[38],0.7%
same,"viability, T/C",[39],0.93%
same,"viability, T/C",[40],0.72%
same,"viability, T/C",[41],0.46%
same,"viability, T/C",[42],0.15%
CC(CO)NC(=O)c1cc(-c2ccc(Cl)cc2)nn(-c2cnn(C)c2)c1=O (stereo not drawn) + CN1CCN(c2cc(C(=O)Nc3cc4cc(-c5cnn(C)c5)ccc4cn3)ccn2)CC1,IC50,[1],> 10000 nM
same,IC50,[2],> 10000 nM
same,IC50,[3],> 10000 nM
same,IC50,[4],< 31.6 nM
same,IC50,[5],< 31.6 nM
same,IC50,[6],< 31.6 nM
same,"viability, T/C",[7],115%
same,"viability, T/C",[8],104%
same,"viability, T/C",[9],106%
same,"viability, T/C",[10],135%
same,"viability, T/C",[11],106%
same,"viability, T/C",[12],75.7%
same,"viability, T/C",[13],115%
same,"viability, T/C",[14],118%
same,"viability, T/C",[15],104%
same,"viability, T/C",[16],116%
same,"viability, T/C",[17],104%
same,"viability, T/C",[18],82.6%
same,"viability, T/C",[19],107%
same,"viability, T/C",[20],93.5%
same,"viability, T/C",[21],86.9%
same,"viability, T/C",[22],88.7%
same,"viability, T/C",[23],80.8%
same,"viability, T/C",[24],68.8%
same,"viability, T/C",[25],30.9%
same,"viability, T/C",[26],27.6%
same,"viability, T/C",[27],31.6%
same,"viability, T/C",[28],31.1%
same,"viability, T/C",[29],31.3%
same,"viability, T/C",[30],32%
same,"viability, T/C",[31],13.1%
same,"viability, T/C",[32],13.4%
same,"viability, T/C",[33],12.1%
same,"viability, T/C",[34],12%
same,"viability, T/C",[35],11.5%
same,"viability, T/C",[36],13.6%
same,"viability, T/C",[37],2.51%
same,"viability, T/C",[38],3.09%
same,"viability, T/C",[39],1.44%
same,"viability, T/C",[40],2.25%
same,"viability, T/C",[41],3.26%
same,"viability, T/C",[42],1.54%

# — PubChem BioAssay AID2060603 (Molecular Pharmacology Branch, DTP, NCI, 2025)
